Test [1] concerns the target interaction between PB1 and PA (Influenza A virus, UniProt P03433). The test is described as follows: biochemical. The test is classed as binding. As to conditions: for IC50: calculated from inhibition at maximum obtainable concentration where solubility too low, read-out: IC50 [μM] (ELISA); for inhibition at 1000 µM: highest concentration used, read-out: Max. Inhibition (ELISA) at 1000 μM.

Another test concerns RSV (Long strain). Kind of test: RSV induced cell death reduction in HEp-2 cells. The test is classed as cell-based, respiratory syncytial virus. As to conditions: for RSV activity, Maximum inhibition (in words): serial dilution 100 to 0.14 μM, 72 h; for inhibition at 33 µM: HEp-2, read-out: RSV activity, Maximum inhibition.
The mark [2] stands for this setting: human respiratory syncytial virus, HEp-2.
The mark [3] stands for this setting: human respiratory syncytial virus, HEp-2, read-out: RSV activity, Maximum inhibition.
[4] abbreviates: human respiratory syncytial virus.

SMILES strings stand for the structures. Where two headings read alike, the source gives them in different places. Where only a bound is given, the exact number is not on record here.

In the case of `COc1ccc(CSc2ccc([N+](=O)[O-])c3nonc23)cc1` [PKE060, 4-[(4-methoxybenzyl)thio]-7-nitro-2,1,3-benzoxadiazole], in test [1] (prescreening), the “Active in ELISA” value is “Yes”.

By IC50 is commonly meant the concentration that gives 50% inhibition. One may read the inhibition as the relative decrease from the control value, in per cent. `COc1ccc(S(=O)(=O)OCCSc2ccc([N+](=O)[O-])c3nonc23)cc1` [PKE061, 2-[(7-nitro-2,1,3-benzoxadiazol-4-yl)thio]ethyl 4-methoxybenzene-1-sulfonate]: in test [1], the IC50 was above 1000 µM and the inhibition at 1000 µM is 37%. For the same molecule, in test [1] (prescreening), the “Active in ELISA” value is on record as “Yes”. Also, the “RSV activity, Maximum inhibition (in words)” value in the test on RSV (Long strain) is “inactive”.

Consider `Cc1ccc(Sc2ccc([N+](=O)[O-])c3nonc23)cc1` [PKE068, 4-[(4-methylphenyl)thio]-7-nitro-2,1,3-benzoxadiazole], for which, in test [1], the IC50 is above 1000 µM and the inhibition at 1000 µM is 46%. For the same molecule, the “Active in ELISA” value in test [1] (prescreening) is “Yes”.

As for `COc1ccc(Nc2ccc([N+](=O)[O-])c3nonc23)cc1` [PKE069, N4-(4-methoxyphenyl)-7-nitro-2,1,3-benzoxadiazol-4-amine], the “Active in ELISA” value in test [1] (prescreening) is given as “No”. Further, the “RSV activity, Maximum inhibition (in words)” value in the test with RSV (Long strain) was “inactive”.

For `O=[N+]([O-])c1ccc(Nc2ccc(F)cc2)c2nonc12` [PKE070, N4-(4-fluorophenyl)-7-nitro-2,1,3-benzoxadiazol-4-amine], in test [1] (prescreening), the “Active in ELISA” value is “No”. Further, the “inhibition of RSV replication (summary in words)” value (“inhibition of RSV replication” below) in the test with RSV (Long strain) is listed as “effective”. This molecule displayed an IC50 in the test with RSV (Long strain) (setting [2]) of 4 µM. In addition, the inhibition at 11 µM with RSV (Long strain) (setting [3]) turned out to be 75%.

For `O=[N+]([O-])c1ccc(Nc2cccc(F)c2)c2nonc12` [PKE071, N4-(3-fluorophenyl)-7-nitro-2,1,3-benzoxadiazol-4-amine], in test [1] (prescreening), the “Active in ELISA” value is on record as “No”. Also, the “inhibition of RSV replication” value in the test with RSV (Long strain) is given as “effective”. Half-maximal inhibition in the test with RSV (Long strain) (setting [2]) (IC50) was put at 4 µM. In addition, the inhibition at 11 µM in the test with RSV (Long strain) (setting [3]) was 73%.

As for `O=[N+]([O-])c1ccc(N2CCCC2)c2nonc12` [PKE072, 4-nitro-7-tetrahydro-1H-pyrrol-1-yl-2,1,3-benzoxadiazole], the “Active in ELISA” value in test [1] is reported as “No”. The “inhibition of RSV replication” value with RSV (Long strain) was “effective”. Besides, the inhibition at 33 µM in the test on RSV (Long strain) (setting [4]) turned out to be 44%.

For `O=[N+]([O-])c1ccc(NCc2cccs2)c2nonc12` [PKE073, N4-(2-thienylmethyl)-7-nitro-2,1,3-benzoxadiazol-4-amine], the “Active in ELISA” value in test [1] was “No”. Further, in the test on RSV (Long strain), the “inhibition of RSV replication” value is “effective”. For the same molecule, in the test with RSV (Long strain) (setting [4]), the inhibition at 33 µM was found to be 42%.

As for `Cc1ccc(Nc2ccc([N+](=O)[O-])c3nonc23)cc1` [PKE074, N4-(4-methylphenyl)-7-nitro-2,1,3-benzoxadiazol-4-amine], the “Active in ELISA” value in test [1] (prescreening) was “No”.

Consider `O=[N+]([O-])c1ccc(Sc2ccc(Cl)cc2Cl)c2nonc12` [PKE075, 4-[(2,4-dichlorophenyl)thio]-7-nitro-2,1,3-benzoxadiazole], for which, in test [1], the IC50 is above 1000 µM and the inhibition at 1000 µM was found to be 35%. The “Active in ELISA” value in test [1] (prescreening) is “Yes”.

As for `O=[N+]([O-])c1ccc(SCCO)c2nonc12` [PKE076, 2-[(7-nitro-2,1,3-benzoxadiazol-4-yl)thio]ethan-1-ol], the “RSV activity, Maximum inhibition (in words)” value in the test with RSV (Long strain) was “inactive”.

Turning to `Cc1ccc(CSc2ccc([N+](=O)[O-])c3nonc23)cc1` [PKE077, 4-[(4-methylbenzyl)thio]-7-nitro-2,1,3-benzoxadiazole], in test [1], the IC50 was above 1000 µM and the inhibition at 1000 µM was found to be 33%. Besides, the “Active in ELISA” value in test [1] (prescreening) is “Yes”. Further, the “RSV activity, Maximum inhibition (in words)” value in the test with RSV (Long strain) was “inactive”.

As for `Cc1cccc(Nc2ccc([N+](=O)[O-])c3nonc23)c1` [PKE078, N4-(3-methylphenyl)-7-nitro-2,1,3-benzoxadiazol-4-amine], the “Active in ELISA” value in test [1] (prescreening) was “No”. For the same molecule, the “inhibition of RSV replication” value in the test on RSV (Long strain) is on record as “effective”. In the test on RSV (Long strain) (setting [2]), this molecule came in with an IC50 of 6 µM. Further, in the test on RSV (Long strain) (setting [3]), the inhibition at 11 µM is 56%.

As for `O=[N+]([O-])c1ccc(Sc2cccc(Cl)c2)c2nonc12` [PKE080, 4-[(3-chlorophenyl)thio]-7-nitro-2,1,3-benzoxadiazole], in test [1], the 50% inhibitory concentration (IC50) was 60 µM. For the same molecule, the “Active in ELISA” value in test [1] (prescreening) is “Yes”.

As for `O=C(OCCSc1ccc([N+](=O)[O-])c2nonc12)c1ccc(Cl)cc1Cl` [PKE081, 2-[(7-nitro-2,1,3-benzoxadiazol-4-yl)thio]ethyl 2,4-dichlorobenzoate], the “Active in ELISA” value in test [1] (prescreening) was “No”.

As for `COc1ccc(C(=O)OCCSc2ccc([N+](=O)[O-])c3nonc23)cc1` [PKE082, 2-[(7-nitro-2,1,3-benzoxadiazol-4-yl)thio]ethyl-4-methoxybenzoate], the concentration for half-maximal inhibition (IC50) in test [1] is 100 µM. In addition, in test [1] (prescreening), the “Active in ELISA” value is recorded as “Yes”.

In the case of `O=C(OCCSc1ccc([N+](=O)[O-])c2nonc12)c1ccccc1` [PKE083, 2-[(7-nitro-2,1,3-benzoxadiazol-4-yl)thio]ethyl benzoate], in test [1] (prescreening), the “Active in ELISA” value is on record as “No”. Further, the “RSV activity, Maximum inhibition (in words)” value in the test with RSV (Long strain) is “inactive”.

Turning to `Nc1nc(Sc2ccc([N+](=O)[O-])c3nonc23)c2[nH]cnc2n1` [PKE110, 6-[(4-nitro-2,1,3-benzoxadiazol-7-yl)sulfanyl]-7H-purin-2-amine], the “Active in ELISA” value in test [1] (prescreening) is given as “No”. In addition, the “RSV activity, Maximum inhibition (in words)” value in the test on RSV (Long strain) is “inactive”.

As to `O=[N+]([O-])c1ccc(Nc2ccccc2)c2nonc12` [PKE118, 4-nitro-N-phenyl-2,1,3-benzoxadiazol-7-amine], in test [1] (prescreening), the “Active in ELISA” value is “No”. In addition, the “inhibition of RSV replication” value in the test on RSV (Long strain) is listed as “effective”. Moreover, the inhibition at 11 µM in the test on RSV (Long strain) (setting [3]) worked out at 44%.

As to `COc1ccc(Nc2ccc([N+](=O)[O-])c3nonc23)cc1` [PKE119, N-(4-methoxyphenyl)-4-nitro-2,1,3-benzoxadiazol-7-amine], in the test with RSV (Long strain), the “inhibition of RSV replication” value is “effective”. The inhibition at 11 µM with RSV (Long strain) (setting [3]) worked out at 21%.

As to `O=[N+]([O-])c1ccc(Nc2ccc(Cl)cc2)c2nonc12` [PKE120, N-(4-chlorophenyl)-4-nitro-2,1,3-benzoxadiazol-7-amine], in test [1] (prescreening), the “Active in ELISA” value was “No”. In addition, in the test on RSV (Long strain), the “inhibition of RSV replication” value is “effective”. In the test on RSV (Long strain) (setting [2]), this molecule returned an IC50 of 2 µM. Further, the inhibition at 3.7 µM in the test with RSV (Long strain) (human respiratory syncytial virus, HEp-2, at 3.7 μM, read-out: RSV activity, Maximum inhibition) stood at 67%.

As for `COc1ccc(CNc2ccc([N+](=O)[O-])c3nonc23)cc1` [PKE130, N-[(4-methoxyphenyl)methyl]-4-nitro-2,1,3-benzoxadiazol-7-amine], the “Active in ELISA” value in test [1] is “No”. Also, the “inhibition of RSV replication” value in the test with RSV (Long strain) is “effective”. Also, in the test on RSV (Long strain) (setting [4]), the inhibition at 33 µM was 48%.

Regarding `Cc1ccccc1Nc1ccc([N+](=O)[O-])c2nonc12` [PKE131, N-(2-methylphenyl)-4-nitro-2,1,3-benzoxadiazol-7-amine], in test [1] (prescreening), the “Active in ELISA” value is reported as “No”. In addition, the “inhibition of RSV replication” value in the test with RSV (Long strain) was “effective”. Further, in the test on RSV (Long strain) (setting [3]), the inhibition at 11 µM came to 48%.

Regarding `O=[N+]([O-])c1ccc(N2CCN(Cc3ccccc3)CC2)c2c1no[n+]2[O-]` [PKE133, 4-nitro-1-oxido-7-[4-(phenylmethyl)piperazin-1-yl]-2,1,3-benzoxadiazol-1-ium], the “Active in ELISA” value in test [1] (prescreening) is “No”. Besides, the “RSV activity, Maximum inhibition (in words)” value in the test on RSV (Long strain) was “inactive”.

With `CCCCN1CCN(c2ccc([N+](=O)[O-])c3no[n+]([O-])c23)CC1` [PKE134, 7-(4-butylpiperazin-1-yl)-4-nitro-1-oxido-2,1,3-benzoxadiazol-1-ium], the “Active in ELISA” value in test [1] (prescreening) was “No”. For the same molecule, in the test with RSV (Long strain), the “RSV activity, Maximum inhibition (in words)” value was “inactive”.

On to `O=[N+]([O-])c1ccc(N2CCN(c3ccccc3)CC2)c2nonc12` [PKE135, 4-nitro-7-(4-phenylpiperazin-1-yl)-2,1,3-benzoxadiazole], for which the “Active in ELISA” value in test [1] (prescreening) was “No”. Also, in the test on RSV (Long strain), the “RSV activity, Maximum inhibition (in words)” value is “inactive”.

On to `CCN(CC)CCCNc1ccc([N+](=O)[O-])c2no[n+]([O-])c12` [PKE136, N,N-diethyl-N′-(4-nitro-1-oxido-2,1,3-benzoxadiazol-1-ium-7-yl)propane-1,3-diamine], for which, in test [1] (prescreening), the “Active in ELISA” value is reported as “No”. The “RSV activity, Maximum inhibition (in words)” value in the test with RSV (Long strain) is “inactive”.

In the case of `O=[N+]([O-])c1ccc(Sc2ncnc3nc[nH]c23)c2nonc12` [PKE139, 4-nitro-7-(7H-purin-6-ylsulfanyl)-2,1,3-benzoxadiazole], the “Active in ELISA” value in test [1] (prescreening) was “No”. Besides, in the test on RSV (Long strain), the “RSV activity, Maximum inhibition (in words)” value is “inactive”.

Turning to `CC(C)(C)c1csc(-c2ccc3nonc3c2)n1` [PKE140, 5-[4-(tert-butyl)-1,3-thiazol-2-yl]-2,1,3-benzoxadiazole], in test [1], the IC50 was above 1000 µM and the inhibition at 1000 µM came to 34%. Further, in test [1] (prescreening), the “Active in ELISA” value is “Yes”. Moreover, in the test with RSV (Long strain), the “RSV activity, Maximum inhibition (in words)” value is “inactive”.

As to `O=[N+]([O-])c1c(NCc2ccccc2)ccc2nonc12` [PKE190, N-benzyl-4-nitro-2,1,3-benzoxadiazol-5-amine], in test [1], the IC50 is above 1000 µM and the inhibition at 1000 µM was 37%. Also, the “Active in ELISA” value in test [1] (prescreening) is given as “Yes”. Also, the “RSV activity, Maximum inhibition (in words)” value in the test on RSV (Long strain) is “inactive”.

On to `CCN(CC)c1cc(Cl)c2nonc2c1[N+](=O)[O-]` [PKE191, 7-chloro-N,N-diethyl-4-nitro-2,1,3-benzoxadiazol-5-amine], for which, in test [1] (prescreening), the “Active in ELISA” value is listed as “No”. Moreover, the “inhibition of RSV replication” value in the test on RSV (Long strain) was “effective”. In addition, the inhibition at 11 µM with RSV (Long strain) (setting [3]) is 20%.

Turning to `O=c1[nH]nc(Sc2ccccc2)c2nncn12` [PKE217, 8-phenylsulfanyl-6H-[1,2,4]triazolo[4,3-d][1,2,4]triazin-5-one], the “Active in ELISA” value in test [1] (prescreening) is listed as “No”.

Source of the values: patent publication US20120122896A1, “2,1,3-BENZOXADIAZOL DERIVATIVES FOR THE INHIBITION OF INFLUENZA A AND B VIRUS AND RESPIRATORY SYNCYTIAL VIRUS REPLICATION” (PIKE PHARMA GMBH, priority 2009, published 2012).
